# Counter-ions that a name gives are not always drawn. Like-named read-outs stand apart in the source and are kept apart here. Non-standard residues stand in square brackets, D forms with d. Residues, ends and D or L forms follow the SMILES beside them. Dopa = N[C@@H](Cc1ccc(O)c(O)c1)C(=O)O
# Experiments:
# [1] = Human blood stability test; type: in vitro ADME; set-up: key: slope of % decrease of remaining compound over time; higher = faster metabolism; details: slope of the percentage decrease of remaining compound; substrate 10 μM; 0-60 minutes
# Procedure: The stability of several LDAA compounds in human blood was tested. The substrate concentration was 10 μM and the incubation time 0, 5, 15, 30 and 60 minutes.
# The results are described in Table 19, wherein the results describe the Ke, i.e., the slope of the percentage decrease of the remaining amount of the compound, measured at each of the above time points, such that the higher the Ke the faster the metabolism.
# human plasma = experiment: Protein binding, solid phase extraction (SPE) method; type: in vitro ADME; details: 1.0E−05M; SPE sample preparation
# How it was run: (§1)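 Human plasma spiked with test compound at 10 μM, diluted 1:1 with 4% aqueous phosphoric acid and mixed 15 min before solid phase extraction. Mixed-mode cation exchange (MCX) sorbent used a 2% formic acid wash and 5% NH4OH/methanol elution. Anion exchange (MAX) sorbent used a 5% NH4OH wash and 2% formic acid/methanol elution.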
# [2] = as above; type: in vitro ADME, human; details: human, human plasma, 1.0E−05M, SPE sample preparation
# How it was run: as §1
# [3] = Comparative formulation tests, physical stability (Tables 32a-c, 33a-c); type: physicochemical; details: LDAA TFA salt/CD formulation; for Physical stability (visual), Day 1: Day 1, room temperature; for Physical stability (visual), Day 2: Day 2, room temperature; for Physical stability (visual), Day 5: Day 5, room temperature after two days at 2-8° C.; for Physical stability (visual), Day 6: Day 6, room temperature after two days at 2-8° C.; for Physical stability (visual), Day 40: Day 40, returned to 2-8° C.
# Procedure: It is noted that the formulations were similarly to those above; however, CD was added, and further, the amounts of the antioxidants, i.e., ascorbic acid and NAC, were added at three different concentrations, as detailed in Tables 32a-c below. Further, an additional amount of arginine was added to the solution in order to adjust the pH to a physiologically acceptable pH.
# The formulations prepared as detailed in Tables 32a, 32b and 32c were (a) held at room temperature for two days; (b) transferred to a refrigerator (2-8° C.) for two days; and (c) transferred from the refrigerator to room temperature for an additional two days, during which they were assessed again for precipitants. The formulations were then returned to the refrigerator (2-8° C.) and assessed for precipitants on day 40. The physical stability of each formulation was assessed on the first two days and again on the last two days. The physical stability of the formulations was assessed visually. A clear solution was considered to be stable, while a solution comprising precipitants was considered to be physically unstable. The stability results of the formulations of Tables 32a, 32b and 32c are detailed in Tables 33a, 33b and 33c, respectively.
# [4] = In-vitro metabolism of LDAA compounds using liver microsomes; type: in vitro ADME, human; details: for half-life at 0.1 μM / microsomal CLint at 0.1 μM: both sexes, human, pooled human liver microsomes; for half-life at 0.1 μM: pH 7.4, 1.0E−07M, 0.1 mg/mL microsomal protein; for microsomal CLint at 0.1 μM: pH 7.4, calculated from the half-life; for microsomal CLint at 0.1 μM / % Compound Remaining 1st / % Compound Remaining 2nd / % Compound Remaining Mean: 1.0E−07M
# How it was run: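 Compounds at 0.1 μM were incubated at 37° C with pooled mixed-gender human liver microsomes (0.1 mg/mL protein) in phosphate buffer pH 7.4 plus an NADPH-generating system for 0–60 min. Remaining parent was quantified by HPLC-MS/MS versus time zero; t1/2 came from first-order fits, and Clint = 0.693/(t1/2×protein concentration).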
# [5] = NB 144-15, ~0.1% Asc + ~0.1% NAC
# [6] = NB 144-18, ~0.4% Asc + ~0.4% NAC
# [7] = NB 144-20, ~0.8% Asc + ~0.8% NAC
# [8] = read-out: Half-Life (minute) 1st
# [9] = read-out: Half-Life (minute) 2nd
# [10] = read-out: Half-Life (minute) Mean
compound,measurement,setting,value
"N[C@@H](Cc1ccc(O)c(O)c1)C(=O)N[C@@H](Cc1ccc(O)cc1)C(=O)O [LD-Tyr TFA salt, Levodopa Tyrosine TFA Salt] (H-[Dopa]-Tyr-OH)",Ke,[1],0.0426
same,% Protein Bound 1st,human plasma,11%
same,% Protein Bound 2nd,human plasma,32.5%
same,% Protein Bound Mean,human plasma,22%
same,recovery at 10 μM,[2]; read-out: % Recovery 1st,64%
same,recovery at 10 μM,[2]; read-out: % Recovery 2nd,72%
same,recovery at 10 μM,[2]; read-out: % Recovery Mean,68%
same,"Physical stability (visual), Day 1",[3]; [5],Stable
same,"Physical stability (visual), Day 2",[3]; [5],Stable
same,"Physical stability (visual), Day 5",[3]; [5],Precipitated
same,"Physical stability (visual), Day 6",[3]; [5],Precipitated
same,"Physical stability (visual), Day 40",[3]; [5],Precipitated
same,"Physical stability (visual), Day 1",[3]; [6],Stable
same,"Physical stability (visual), Day 2",[3]; [6],Stable
same,"Physical stability (visual), Day 5",[3]; [6],Stable
same,"Physical stability (visual), Day 6",[3]; [6],Stable
same,"Physical stability (visual), Day 40",[3]; [6],Stable
same,"Physical stability (visual), Day 1",[3]; [7],Stable
same,"Physical stability (visual), Day 2",[3]; [7],Stable
same,"Physical stability (visual), Day 5",[3]; [7],Stable
same,"Physical stability (visual), Day 6",[3]; [7],Stable
same,"Physical stability (visual), Day 40",[3]; [7],Stable
same,half-life at 0.1 μM,[4]; [8],112 min
same,half-life at 0.1 μM,[4]; [9],315 min
same,half-life at 0.1 μM,[4]; [10],> 60 min
same,microsomal CLint at 0.1 μM,[4],< 116 µL/min/mg
same,% Compound Remaining 1st,[4]; incubation time 0 minutes,100%
same,% Compound Remaining 2nd,[4]; incubation time 0 minutes,100%
same,% Compound Remaining Mean,[4]; incubation time 0 minutes,100%
same,% Compound Remaining 1st,[4]; incubation time 15 minutes,90.7%
same,% Compound Remaining 2nd,[4]; incubation time 15 minutes,{121.6%
same,% Compound Remaining Mean,[4]; incubation time 15 minutes,91%
same,% Compound Remaining 1st,[4]; incubation time 30 minutes,102.5%
same,% Compound Remaining 2nd,[4]; incubation time 30 minutes,110.1%
same,% Compound Remaining Mean,[4]; incubation time 30 minutes,106%
same,% Compound Remaining 1st,[4]; incubation time 45 minutes,71.4%
same,% Compound Remaining 2nd,[4]; incubation time 45 minutes,104.1%
same,% Compound Remaining Mean,[4]; incubation time 45 minutes,88%
same,% Compound Remaining 1st,[4]; incubation time 60 minutes,70.8%
same,% Compound Remaining 2nd,[4]; incubation time 60 minutes,84.5%
same,% Compound Remaining Mean,[4]; incubation time 60 minutes,78%
"N=C(N)NCCC[C@H](NC(=O)[C@@H](N)Cc1ccc(O)c(O)c1)C(=O)O [LD-Arg TFA salt, Levodopa Arginine TFA Salt]",Ke,[1],0.0919
same,% Protein Bound 1st,human plasma,91.5%
same,% Protein Bound 2nd,human plasma,91.2%
same,% Protein Bound Mean,human plasma,91%
same,recovery at 10 μM,[2]; read-out: % Recovery 1st,79%
same,recovery at 10 μM,[2]; read-out: % Recovery 2nd,79%
same,recovery at 10 μM,[2]; read-out: % Recovery Mean,79%
same,"Physical stability (visual), Day 1",[3]; [5],Stable
same,"Physical stability (visual), Day 2",[3]; [5],Stable
same,"Physical stability (visual), Day 5",[3]; [5],Stable
same,"Physical stability (visual), Day 6",[3]; [5],Stable
same,"Physical stability (visual), Day 40",[3]; [5],Stable
same,"Physical stability (visual), Day 1",[3]; [6],Stable
same,"Physical stability (visual), Day 2",[3]; [6],Stable
same,"Physical stability (visual), Day 5",[3]; [6],Stable
same,"Physical stability (visual), Day 6",[3]; [6],Stable
same,"Physical stability (visual), Day 40",[3]; [6],Stable
same,"Physical stability (visual), Day 1",[3]; [7],Stable
same,"Physical stability (visual), Day 2",[3]; [7],Stable
same,"Physical stability (visual), Day 5",[3]; [7],Stable
same,"Physical stability (visual), Day 6",[3]; [7],Stable
same,"Physical stability (visual), Day 40",[3]; [7],Stable
same,half-life at 0.1 μM,[4]; [8],42.9 min
same,half-life at 0.1 μM,[4]; [9],40.5 min
same,half-life at 0.1 μM,[4]; [10],42 min
same,microsomal CLint at 0.1 μM,[4],166 µL/min/mg
same,% Compound Remaining 1st,[4]; incubation time 0 minutes,100%
same,% Compound Remaining 2nd,[4]; incubation time 0 minutes,100%
same,% Compound Remaining Mean,[4]; incubation time 0 minutes,100%
same,% Compound Remaining 1st,[4]; incubation time 15 minutes,109.7%
same,% Compound Remaining 2nd,[4]; incubation time 15 minutes,111.8%
same,% Compound Remaining Mean,[4]; incubation time 15 minutes,111%
same,% Compound Remaining 1st,[4]; incubation time 30 minutes,84.2%
same,% Compound Remaining 2nd,[4]; incubation time 30 minutes,90.9%
same,% Compound Remaining Mean,[4]; incubation time 30 minutes,88%
same,% Compound Remaining 1st,[4]; incubation time 45 minutes,70%
same,% Compound Remaining 2nd,[4]; incubation time 45 minutes,{52.4} %
same,% Compound Remaining Mean,[4]; incubation time 45 minutes,70%
same,% Compound Remaining 1st,[4]; incubation time 60 minutes,37.3%
same,% Compound Remaining 2nd,[4]; incubation time 60 minutes,38.6%
same,% Compound Remaining Mean,[4]; incubation time 60 minutes,38%
"NCCCC[C@H](NC(=O)[C@@H](N)Cc1ccc(O)c(O)c1)C(=O)O [LD-Lys TFA salt, Levodopa Lysine TFA Salt] (H-[Dopa]-Lys-OH)",Ke,[1],0.0655
same,% Protein Bound 1st,human plasma,0.3%
same,% Protein Bound 2nd,human plasma,18.7%
same,% Protein Bound Mean,human plasma,10%
same,recovery at 10 μM,[2]; read-out: % Recovery 1st,79%
same,recovery at 10 μM,[2]; read-out: % Recovery 2nd,63%
same,recovery at 10 μM,[2]; read-out: % Recovery Mean,71%
same,"Physical stability (visual), Day 1",[3]; [5],Precipitated
same,"Physical stability (visual), Day 2",[3]; [5],Precipitated
same,"Physical stability (visual), Day 5",[3]; [5],Precipitated
same,"Physical stability (visual), Day 6",[3]; [5],Precipitated
same,"Physical stability (visual), Day 40",[3]; [5],Precipitated
same,"Physical stability (visual), Day 1",[3]; [6],Stable
same,"Physical stability (visual), Day 2",[3]; [6],Stable
same,"Physical stability (visual), Day 5",[3]; [6],Precipitated
same,"Physical stability (visual), Day 6",[3]; [6],Precipitated
same,"Physical stability (visual), Day 40",[3]; [6],Precipitated
same,"Physical stability (visual), Day 1",[3]; [7],Stable
same,"Physical stability (visual), Day 2",[3]; [7],Stable
same,"Physical stability (visual), Day 5",[3]; [7],Precipitated
same,"Physical stability (visual), Day 6",[3]; [7],Precipitated
same,"Physical stability (visual), Day 40",[3]; [7],Precipitated
same,half-life at 0.1 μM,[4]; [8],91.3 min
same,half-life at 0.1 μM,[4]; [9],58.3 min
same,half-life at 0.1 μM,[4]; [10],> 60 min
same,microsomal CLint at 0.1 μM,[4],< 116 µL/min/mg
same,% Compound Remaining 1st,[4]; incubation time 0 minutes,100%
same,% Compound Remaining 2nd,[4]; incubation time 0 minutes,100%
same,% Compound Remaining Mean,[4]; incubation time 0 minutes,100%
same,% Compound Remaining 1st,[4]; incubation time 15 minutes,{123.5%
same,% Compound Remaining 2nd,[4]; incubation time 15 minutes,96.7%
same,% Compound Remaining Mean,[4]; incubation time 15 minutes,97%
same,% Compound Remaining 1st,[4]; incubation time 30 minutes,64.2%
same,% Compound Remaining 2nd,[4]; incubation time 30 minutes,83.5%
same,% Compound Remaining Mean,[4]; incubation time 30 minutes,74%
same,% Compound Remaining 1st,[4]; incubation time 45 minutes,76.7%
same,% Compound Remaining 2nd,[4]; incubation time 45 minutes,{43.7} %
same,% Compound Remaining Mean,[4]; incubation time 45 minutes,77%
same,% Compound Remaining 1st,[4]; incubation time 60 minutes,59.5%
same,% Compound Remaining 2nd,[4]; incubation time 60 minutes,50.4%
same,% Compound Remaining Mean,[4]; incubation time 60 minutes,55%
